The text below walks through data of article PMC9233891 (Bioorganic Chemistry, 2022).

Molecules are shown by their SMILES.

The test system of test [1] is S protein / ACE2 interaction. The settings on record: previous study; cited from earlier work.
For another test, the system named is ancestral SARS-CoV-2. As to the kind of experiment: microbe, parasite or virus in culture. Type of test: cell-based. The note with it: Severe acute respiratory syndrome coronavirus 2, Vero, 24 h, read-out: IC50, inhibition of SARS-CoV-2 infection.

For the compound `C[C@@H]1O[C@@H](O[C@H]2[C@H](OC(=O)[C@]34CCC(C)(C)C[C@H]3C3=CC[C@@H]5[C@@]6(C)C[C@H](O)[C@H](O[C@@H]7O[C@H](CO)[C@@H](O)[C@H](O)[C@H]7O)C(CO)(CO)[C@@H]6CC[C@@]5(C)[C@]3(C)C[C@H]4O)OC[C@H](O)[C@@H]2O)[C@H](O)[C@H](O)[C@H]1O[C@@H]1OC[C@@H](O)[C@H](O[C@@H]2OC[C@](O)(CO)[C@H]2O)[C@H]1O` [Platycodin D, platycodin D], the “inhibition of the interaction between the S protein and ACE2” value in test [1] was “does not inhibit the interaction between the S protein and ACE2”.
Broadly, the IC50 is the point on the concentration scale where inhibition reaches its midpoint. Turning to `CCN(CC)CCCC(C)Nc1ccnc2cc(Cl)ccc12` (stereo not drawn) [chloroquine], the IC50 with ancestral SARS-CoV-2 stood at 5.56 µM.
Regarding `CCC(CC)COC(=O)[C@H](C)N[P@](=O)(OC[C@H]1O[C@@](C#N)(c2ccc3c(N)ncnn23)[C@H](O)[C@@H]1O)Oc1ccccc1` [remdesivir], the 50% inhibitory concentration (IC50) in the test with ancestral SARS-CoV-2 turned out to be 4.67 µM.
